According to PubChem BioAssay (NCI):
“And” between values parts separate entries of the source, which are not always exact repeats. Equal values may be shown once.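 Results reflect a 48-hour exposure of cells in 96-well plates to compound at five concentrations. GI50: concentration for 50% inhibition of growth. TGI marks complete inhibition of growth.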

Experiments:
Assay in all cases: NCI-60 cell line screen, 48 h
[1] = tested on: SW-620 colon
[2] = tested on: SN12C renal
[3] = tested on: A549 NSCLC
[4] = tested on: COLO 205 colon
[5] = tested on: OVCAR-5 ovarian
[6] = tested on: A498 renal
[7] = tested on: DU-145 prostate
[8] = tested on: OVCAR-8 ovarian
[9] = tested on: SK-OV-3 ovarian
[10] = tested on: HL-60(TB) leukemia

| Structure (SMILES) | GI50 [1] [µM] | TGI [1] | GI50 [2] [µM] | TGI [2] | GI50 [3] | TGI [3] | GI50 [4] [µM] | TGI [4] | GI50 [5] [µM] | TGI [5] | GI50 [6] [µM] | TGI [6] | GI50 [7] | TGI [7] [µM] | GI50 [8] [µM] | TGI [8] | GI50 [9] [µM] | TGI [9] | GI50 [10] [µM] | TGI [10] |
| --- | --- | --- | --- | --- | --- | --- | --- | --- | --- | --- | --- | --- | --- | --- | --- | --- | --- | --- | --- | --- |
| CC1(C)OC[C@@H]([C@@]2(CO[Si](C)(C)C(C)(C)C)CC=CC(=O)O2)O1 | 28.3 | 69.8 µM | 19.5 | 47.6 µM | 16.7 µM | 47.5 µM | 33.5 | > 100 µM | 28.6 | 69.3 µM | 18.6 | 36.1 µM | 18.7 µM | 40.9 | 33.9 | > 100 µM | 30.4 | 88.5 µM | – | – |
| C[C@@H]1O[C@@H](O[C@@H]2[C@@H](O)[C@H](OCCc3ccc(O)c(O)c3)O[C@H](COC(=O)/C=C/c3ccc(O)c(O)c3)[C@H]2O)[C@H](O)[C@H](O)[C@H]1O | 18.7 | 37.9 µM | 68.7 | > 100 µM | > 100 µM | > 100 µM | > 100 | > 100 µM | > 100 | > 100 µM | – | – | 32.6 µM | > 100 | – | – | > 100 | > 100 µM | 54.4 | > 100 µM |
| COc1ccc2nc(-c3ccccc3)cc(Nc3ccc(C(C)=O)cc3)c2c1 | 5.08 | 18.5 µM | 1.87 | 4.66 µM | 11.9 µM | 60.3 µM | 16.4 | > 100 µM | 6.3 | 19.1 µM | – | – | 14.1 µM | 27.1 | 4.17 | 35.8 µM | 16.1 | 36.9 µM | – | – |
| CC(=O)C1CC2(c3ccc(C)cc3)C(c3ccc(C)cc3)=C(c3ccc(C)cc3)C1(c1ccc(C)cc1)S2=O (centres undefined) | > 100 | > 100 µM | > 100 | > 100 µM | > 100 µM | > 100 µM | > 100 | > 100 µM | > 100 | > 100 µM | – | – | > 100 µM | > 100 | 88.2 | > 100 µM | > 100 | > 100 µM | – | – |
| N#CC1=C(N)N=C(N2CCCCC2)C(C#N)C12Nc1ccccc1S2 (centres undefined) | 38.4 | > 100 µM | 24.8 | > 100 µM | 29.5 µM | > 100 µM | 29.3 | 82.6 µM | – | – | – | – | 43 µM | > 100 | 38.3 | > 100 µM | 39.1 | > 100 µM | 85.4 | > 100 µM |
| O=C1CCCCCCCC/C=C/CCC(c2ccco2)O1 (centres undefined) | 58.3 | > 100 µM | 31.7 | > 100 µM | > 100 µM | > 100 µM | 68 | > 100 µM | > 100 | > 100 µM | – | – | 57.2 µM | > 100 | 88.1 | > 100 µM | > 100 | > 100 µM | 14.5 | 38.7 µM |
| CC(=O)OCC1OC(OC2CC3C(C)(C)C(OC(C)=O)CC[C@]3(C)C3CCC45CC4(CC[C@H]5C(C)CC(O)[C@@H](O)C(C)(C)O)[C@]23C)C(O)C(O)C1O (some centres undefined) | 3.54 | 14 µM and 13.7 µM | – | 13.2 µM and 19.1 µM | 19.9 µM | 14.2 µM and 35 µM | 1.93 | 14 µM and 3.95 µM | 14.6 | 13.9 µM and 27.9 µM | 19.6 | 13.2 µM and 35.6 µM | – | – | 8.43 | 13.9 µM and 22.5 µM | 12.4 | 11.6 µM and 24.8 µM | 2.45 | 11.9 µM and 5.3 µM |
| CCOC(=O)Cc1csc(/N=C2\NC(=O)/C(=C3\C(=O)N(C)c4ccccc43)S2)n1 | 52.1 | > 100 µM | 31 | > 100 µM | 36.5 µM | > 100 µM | 48.7 | > 100 µM | > 100 | > 100 µM | 46.8 | > 100 µM | 41.4 µM | > 100 | 65.3 | > 100 µM | > 100 | > 100 µM | – | – |
| N#CC1=C(N)NC(=S)NC12Nc1ccccc1O2 (centres undefined) | 47.6 | > 100 µM | 25.2 | 90 µM | 37.2 µM | > 100 µM | 28.1 | > 100 µM | 40.7 | > 100 µM | – | – | 55.1 µM | > 100 | 46.2 | > 100 µM | 37.9 | > 100 µM | 17.2 | > 100 µM |
| COc1ccc(/C=C\c2cc(OC)c(OC)c(OC)c2)cc1OC(=O)C(N)CCC(=O)O (centres undefined) | 0.000594 | > 100 µM | – | > 100 µM | 0.00398 µM and 0.0108 µM | 28.4 µM and > 100 µM | – | – | – | > 100 µM | – | – | 0.000364 µM and 0.000444 µM and < 0.0001 µM | – | 0.000112 | – | – | > 100 µM | 0.00017 | 0.000422 µM and 0.00275 µM |
